Assay results: patent US10457710B2, “Antimicrobial peptides, their variants and uses” (priority 2015, dated 2019)
Values after ≈ are worked out from the molar mass of the structure shown. Where a SMILES comes first, the peptide text is derived from it. [ ]: non-standard residue; d: D form.

Columns and labels:
Format in all cases: cell-based
C. quillermondiae = experiment: MIC, clinical yeast strains; parameters: Minimum inhibitory concentration: unit: μg/ml; conditions: C. quillermondiae clinical yeast strain 1
Outline: (§1)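 MIC = lowest peptide concentration without visual growth after 20–24 h at 37° C. Range 0.125–128 μg/ml, inoculum 5.0×10^5 cfu/ml, microdilution format. Antifungal tests used potato dextrose broth; bacterial tests used MH broth.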

[1] = system: clinical strains of bacteria and yeasts; experiment: MIC, all clinical bacteria and yeasts tested together; conditions: bacterial strains other than E. coli
Protocol: Minimum inhibition concetrations (MICs) were determined against Escherichia coli (ATCC 25922), Staphylococcus aureus (ATCC 25923), Klebsiella pneumoniae (ATCC 10031) and Pseudomonas aeruginosa (ATCC 27853). Also clinical strains of E. coli, K. pneumoniae, E. cloacae, P. aeruginosa, Serratia marcescens, Proteus mirabilis, S. pneumoniae, Acinetobacter baumannii, A. johnsonii and S. aureus were used for MICs assays. Additionally, clinical strains of yeast including Candida albicans, C. glabrata, C. parapsilosis and C. quillermondiae were used. The susceptibility of these microorganisms to Chain peptides were determined using micro broth dilution assay. Colonies of the respective microorganism from Muller Hinton (MH) agar plates incubated overnight were suspended in MH broth media and final concentration of microorganism was adjusted to 5.0×10^5 cfu/ml. An aliquot of 10 μl of each Chain peptide, or gentamicin, tetracycline as reference antibiotics were added in differing concentrations along with 90 μl of bacterial suspension to 96 well polypropylene plates and incubated at 37° C. for 20 to 24 hours. Concentrations of Chain peptides and reference antibiotics ranged from 0.125 to 128 μg/ml and the MICs were recorded as the lowest concentration with no visual growth of bacteria. Similarly, antifungal MICs were tested in Potato dextrose broth. […]

C. parapsilosis = experiment: MIC, clinical yeast strains
Outline: as §1

Candida albicans = experiment: MIC, clinical yeast strains
Outline: as §1

C. glabrata = experiment: MIC, clinical yeast strains
Outline: as §1

[2] = system: clinical strains of Proteus mirabilis; experiment: MIC, microdilution, clinical strains; conditions: 0.02% BSA, 0.2% acetic acid
Outline: as §1

[3] = system: clinical strains of E. cloacae; experiment: MIC, microdilution, clinical strains; conditions: 0.02% BSA, 0.2% acetic acid
Outline: as §1

[4] = system: clinical strains of S. aureus; experiment: MIC, microdilution, clinical strains; conditions: 0.02% BSA, 0.2% acetic acid
Outline: as §1

[5] = system: clinical strains of Serratia marcescens; experiment: MIC, microdilution, clinical strains; conditions: 0.02% BSA, 0.2% acetic acid
Outline: as §1

[6] = system: clinical strains of P. aeruginosa; experiment: MIC, microdilution, clinical strains; conditions: 0.02% BSA, 0.2% acetic acid
Outline: as §1

[7] = system: clinical strains of E. coli; experiment: MIC, microdilution, clinical strains
Outline: as §1

[8] = system: clinical strains of S. pneumoniae; experiment: MIC, microdilution, clinical strains; conditions: 0.02% BSA, 0.2% acetic acid
Outline: as §1

[9] = system: clinical strains of K. pneumoniae; experiment: MIC, microdilution, clinical strains; conditions: 0.02% BSA, 0.2% acetic acid
Outline: as §1

[10] = system: clinical strains of A. johnsonii; experiment: MIC, microdilution, clinical strains; parameters: unit: μg/ml; conditions: Acinetobacter johnsonii strain 1, Muller Hinton broth-cation adjusted, 0.02% BSA, 0.2% acetic acid
Outline: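 Overnight MH agar colonies were suspended in MH broth to 5.0×10^5 cfu/ml, mixed with serial peptide dilutions (0.125–128 μg/ml) and incubated at 37° C for 20 to 24 hours. Yeast MICs were run the same way in potato dextrose broth, and wells were scored visually.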

[11] = system: clinical strains of Acinetobacter baumannii; experiment: MIC, microdilution, clinical strains; parameters: unit: μg/ml; conditions: 0.02% BSA, 0.2% acetic acid
Outline: as §1

CC(C)C[C@@H](NC(=O)[C@H](N)CCCNC(=N)N)C(=O)N[C@H](CCCCN)C(=O)N[C@H](CCCNC(=N)N)C(=O)N[C@H](Cc1c[nH]c2ccccc12)C(=O)N[C@H](CCCNC(=N)N)C(=O)N[C@H](CC(C)C)C(=O)N[C@H](Cc1ccccc1)C(=O)N[C@H](CCCNC(=N)N)C(=O)N[C@H](CCCCN)C(=O)N[C@H](CCCNC(=N)N)C(=O)O [Chain306D] (H-[dR][dL][dK][dR][dW][dR][dL][dF][dR][dK][dR]-OH)
Minimum inhibitory concentration (C. quillermondiae): 4 | activity for the rest of the bacterial strains [1]: > 32 µg/mL | Minimum inhibitory concentration (C. parapsilosis; C. parapsilosis clinical yeast strain 1): 8 | Minimum inhibitory concentration (C. parapsilosis; C. parapsilosis clinical yeast strain 2): 16 | Minimum inhibitory concentration (C. parapsilosis; C. parapsilosis clinical yeast strain 3): 16 | Minimum inhibitory concentration (C. parapsilosis; C. parapsilosis clinical yeast strain 4): 4 | Minimum inhibitory concentration (Candida albicans; Candida albicans clinical yeast strain 1): 16 | Minimum inhibitory concentration (Candida albicans; Candida albicans clinical yeast strain 2): 8 | Minimum inhibitory concentration (Candida albicans; Candida albicans clinical yeast strain 3): 8 | Minimum inhibitory concentration (Candida albicans; Candida albicans clinical yeast strain 4): 16 | Minimum inhibitory concentration (Candida albicans; Candida albicans clinical yeast strain 5): 16 | Minimum inhibitory concentration (C. glabrata; C. glabrata clinical yeast strain 1): 8 | Minimum inhibitory concentration (C. glabrata; C. glabrata clinical yeast strain 2): 8 | Minimum inhibitory concentration (C. glabrata; C. glabrata clinical yeast strain 3): 16 | Minimum inhibitory concentration (C. glabrata; C. glabrata clinical yeast strain 4): 32 | Minimum inhibitory concentration ([2]; Proteus mirabilis strain 1, Muller Hinton broth-cation adjusted): >128 | Minimum inhibitory concentration ([2]; Proteus mirabilis strain 2, Muller Hinton broth-cation adjusted): >128 | Minimum inhibitory concentration ([2]; Proteus mirabilis strain 3, Muller Hinton broth-cation adjusted): >128 | Minimum inhibitory concentration ([2]; Proteus mirabilis strain 4, Muller Hinton broth-cation adjusted): >128 | Minimum inhibitory concentration ([2]; Proteus mirabilis strain 5, Muller Hinton broth-cation adjusted): >128 | Minimum inhibitory concentration ([3]; Enterobacter cloacae strain 1, Muller Hinton broth-cation adjusted): 64 | Minimum inhibitory concentration ([3]; Enterobacter cloacae strain 2, Muller Hinton broth-cation adjusted): 64 | Minimum inhibitory concentration ([3]; Enterobacter cloacae strain 3, Muller Hinton broth-cation adjusted): 32 | Minimum inhibitory concentration ([3]; Enterobacter cloacae strain 4, Muller Hinton broth-cation adjusted): 16 | Minimum inhibitory concentration ([3]; Enterobacter cloacae strain 5, Muller Hinton broth-cation adjusted): 16 | Minimum inhibitory concentration ([4]; Staphylococcus aureus strain 1, Muller Hinton broth-cation adjusted): 16 | Minimum inhibitory concentration ([4]; Staphylococcus aureus strain 2, Muller Hinton broth-cation adjusted): 32 | Minimum inhibitory concentration ([4]; Staphylococcus aureus strain 3, Muller Hinton broth-cation adjusted): 32 | Minimum inhibitory concentration ([4]; Staphylococcus aureus strain 4, Muller Hinton broth-cation adjusted): 16 | Minimum inhibitory concentration ([4]; Staphylococcus aureus strain 5, Muller Hinton broth-cation adjusted): 8 | Minimum inhibitory concentration ([5]; Serratia marcescens strain 1, Muller Hinton broth-cation adjusted): >128 | Minimum inhibitory concentration ([5]; Serratia marcescens strain 2, Muller Hinton broth-cation adjusted): >128 | Minimum inhibitory concentration ([5]; Serratia marcescens strain 3, Muller Hinton broth-cation adjusted): >128 | Minimum inhibitory concentration ([5]; Serratia marcescens strain 4, Muller Hinton broth-cation adjusted): >128 | Minimum inhibitory concentration ([5]; Serratia marcescens strain 5, Muller Hinton broth-cation adjusted): >128 | Minimum inhibitory concentration ([6]; Pseudomonas aeruginosa strain 1, Muller Hinton broth-cation adjusted): 128 | Minimum inhibitory concentration ([6]; Pseudomonas aeruginosa strain 2, Muller Hinton broth-cation adjusted): >128 | Minimum inhibitory concentration ([6]; Pseudomonas aeruginosa strain 3, Muller Hinton broth-cation adjusted): 128 | Minimum inhibitory concentration ([6]; Pseudomonas aeruginosa strain 4, Muller Hinton broth-cation adjusted): >128 | Minimum inhibitory concentration ([6]; Pseudomonas aeruginosa strain 5, Muller Hinton broth-cation adjusted): 128 | Minimum inhibitory concentration ([7]; Escherichia coli strain 1, microdilution, Muller Hinton broth-cation adjusted, 0.02% BSA, 0.2% acetic acid): 1 | Minimum inhibitory concentration ([7]; Escherichia coli strain 2, microdilution, Muller Hinton broth-cation adjusted, 0.02% BSA, 0.2% acetic acid): 2 | Minimum inhibitory concentration ([7]; Escherichia coli strain 3, microdilution, Muller Hinton broth-cation adjusted, 0.02% BSA, 0.2% acetic acid): 2 | Minimum inhibitory concentration ([7]; Escherichia coli strain 4, microdilution, Muller Hinton broth-cation adjusted, 0.02% BSA, 0.2% acetic acid): 2 | Minimum inhibitory concentration ([7]; Escherichia coli strain 5, microdilution, Muller Hinton broth-cation adjusted, 0.02% BSA, 0.2% acetic acid): 2 | Minimum inhibitory concentration ([7]; clinical strains, peptide synthesized as D-form amino acids): 1 µg/mL (≈ 0.619 µM) | Minimum inhibitory concentration ([8]; Streptococcus pneumoniae strain 1, Muller Hinton broth-cation adjusted): 64 | Minimum inhibitory concentration ([8]; Streptococcus pneumoniae strain 2, Muller Hinton broth-cation adjusted): 64 | Minimum inhibitory concentration ([8]; Streptococcus pneumoniae strain 3, Muller Hinton broth-cation adjusted): 64 | Minimum inhibitory concentration ([8]; Streptococcus pneumoniae strain 4, Muller Hinton broth-cation adjusted): 128 | Minimum inhibitory concentration ([8]; Streptococcus pneumoniae strain 5, Muller Hinton broth-cation adjusted): 64 | Minimum inhibitory concentration ([9]; Klebsiella pneumoniae strain 1, Muller Hinton broth-cation adjusted): 128 | Minimum inhibitory concentration ([9]; Klebsiella pneumoniae strain 2, Muller Hinton broth-cation adjusted): >128 | Minimum inhibitory concentration ([9]; Klebsiella pneumoniae strain 3, Muller Hinton broth-cation adjusted): >128 | Minimum inhibitory concentration ([9]; Klebsiella pneumoniae strain 4, Muller Hinton broth-cation adjusted): 64 | Minimum inhibitory concentration ([9]; Klebsiella pneumoniae strain 5, Muller Hinton broth-cation adjusted): 64 | Minimum inhibitory concentration [10]: 16 | Minimum inhibitory concentration ([11]; Acinetobacter baumannii strain 1, Muller Hinton broth-cation adjusted): 16 | Minimum inhibitory concentration ([11]; Acinetobacter baumannii strain 2, Muller Hinton broth-cation adjusted): 32 | Minimum inhibitory concentration ([11]; Acinetobacter baumannii strain 3, Muller Hinton broth-cation adjusted): 16 | Minimum inhibitory concentration ([11]; Acinetobacter baumannii strain 4, Muller Hinton broth-cation adjusted): 16 | Minimum inhibitory concentration ([11]; Acinetobacter baumannii strain 5, Muller Hinton broth-cation adjusted): 8
